Data taken from patent US10005809B2, “Bio-active antioxidants from plant foods for nutraceutical product development” (priority 2013, dated 2018).
Where “and” joins values, the source holds several entries; their conditions need not be identical. Identical values can stand only once. Counter-ions that a name gives are not always drawn.

Assays:
[1] = Trolox Equivalents Antioxidant Capacity (TEAC) assay; type: biochemical; settings: for antioxidant activity (in words): TEAC measurements; for TEAC (Trolox equivalent antioxidant capacity) ± SEM: compounds 10-1000 μM, ABTS 0.5 mM, 734 nm, 6 min, ratio of slopes, no unit, n = 3
Description: Trolox Equivalents Antioxidant Capacity (TEAC) Assay of Compounds (1-11)
Pure compounds and standards (conc. Range 10-1000 μM) were reacted with the fixed concentration of ABTS (0.5 mM) according to the reported method. The decrease in absorbance at 734 nm was recorded 6 min after the addition of pro-formed ABTS radical solution. Standards including Trolox, quercetin, kaempferol and ascorbic acid were used for the comparison of structure-activity relationship with the isolated compounds. The calculation of TEAC values was obtained by plotting the graphs between various concentrations of compounds and percent radical scavenging activity. Slope (m) was then calculated by using the linear regression (y=mx+c) of the plotted curve. Ratio of the value of slope of Trolox with that of isolated compounds was calculated to get TEAC value as follows; TEACCompound=Slope of Trolox/Slope of compound (3)
The TEAC assay was used to assess the power of reduction of total amount of ABTS^•+ radicals formed during the reaction by bioactive metaboilite. The ABTS is intensely colored and when it reacts with antioxidant the color disappeared. […] In present procedure, the ratio of the slope of concentrations of standard and test compound is taken, therefore TEAC is considered as relative value with no unit. Trolox used as standard antioxidant with TEAC value as 1.

[2] = Liver function test (LFT) and lipid profile of serum after oral extract feeding; type: in vivo, Male Wistar rats; settings: rat serum after two weeks oral feeding; mean ± SEM, n = 6
From the text: Rats were housed in polycarbonate cages, containing hardwood chip bedding. A standard pallet diet and water was made available ad-libitum. A 12 hr light/dark cycle was maintained throughout tbe study. After 14 days of acclimatization, the rats were randomized, and divided to 6 animals in each group: control, test, and positive control (Trolox). Oral doses of extracts were given after every alternate day and their physical status and weight changes were monitored daily. Control group has received an equal volume of normal saline for the same period of time. The experiment was terminated after two weeks of feeding. Under mild anesthetic conditions, blood was drawn via heart puncture. Blood was collected in clot activator plastic tubes, and allowed to clot for 30-40 minutes. Serum was separated by centrifugation and then stored at -20° C. till antioxidant status and other biochemical analysis were carried out. LPT and Lipid Profile The diagnostic facilities of […]), University of Karachi, were used for the biochemical analysis of serum samples. Lipid profile includes cholesterol, triglycerides, high density lipoproteins (HDL), low density lipoproteins (LDL), and LPT including bilirubin (total and direct), enzymes such as alanine aminotransferase (ALT), alkaline phosphatase (ALP), and gamma […] (GGT), were measured. These assays were performed by fully automated chemistry analyzer (Hitachi 902, Roche Diagnostics, Japan) with standardized kits, calibrators, and controls. Total lipid was estimated manually by calorimetric method of phosphovanilline on a photometer (Clinicon 4010, Boehringer […], Germany).

In the case of 1,5-dimethyl citrate [compound 10], the “antioxidant activity (in words)” value [1] is reported as “moderate to low antioxidant activity” and the “TEAC (Trolox equivalent antioxidant capacity) ± SEM” value [1] is reported as 0.67±0.31.

With `O=C1O[C@H]([C@@H](O)CO)C(O)=C1O` [Ascorbic acid, reference compound] the “TEAC (Trolox equivalent antioxidant capacity) ± SEM” value [1] was 1.14 ± 0.29.

In the case of `O=c1c(O)c(-c2ccc(O)cc2)oc2cc(O)cc(O)c12` [Kaempferol, reference compound], the “TEAC (Trolox equivalent antioxidant capacity) ± SEM” value [1] is reported as 0.97 ± 0.27 and the “TEAC (Trolox equivalent antioxidant capacity) ± SEM” value ([1]; listed as keampferol) is reported as 0.97.

In the case of `O=c1c(O)c(-c2ccc(O)c(O)c2)oc2cc(O)cc(O)c12` [Quercetin, reference compound], the “TEAC (Trolox equivalent antioxidant capacity) ± SEM” value [1] is reported as 1.07 ± 0.23 and the “TEAC (Trolox equivalent antioxidant capacity) ± SEM” value ([1]; listed as quercetin) is reported as 1.07±0.23.

For `Cc1c(C)c2c(c(C)c1O)CCC(C)(C(=O)O)O2` (centres unmarked) [Trolox, 6-hydroxy-2,5,7,8-tetramethylchroman-2-carboxylic acid], the ALP [2] was 212.54 ± 24.51 U/L, the ALT/SGPT [2] was 45.5 ± 5.49 U/L and the Chol [2] was 56.75 ± 2.07 mg/dL. For the same molecule, the “Direct Bilirubin” value [2] was 0.085 ± 0.007 mg/dL, the GGT [2] was 4.25 ± 0.74 U/L and the HDL-c [2] was 55 ± 1.97 mg/dL. The “Indirect Bilirubin” value [2] was 0.43 ± 0.03 mg/dL, the LDL-c [2] was 14.25 ± 0.96 mg/dL and the TAG [2] was 40 ± 1.54 mg/dL. The “Total Bilirubin” value [2] was 0.51 ± 0.02 mg/dL, the “Total Lipid” value [2] was 260 ± 5 mg/dL and the VLDL [2] was 8.5 ± 0.25 mg/dL. The “TEAC (Trolox equivalent antioxidant capacity) ± SEM” value [1] was 1.

With `COc1cc(-c2oc3cc(O)cc(O[C@@H]4O[C@H](COC(=O)CC(C)(O)CC(=O)O)[C@@H](O)[C@H](O)[C@H]4O)c3c(=O)c2O)ccc1O` (stereo partly drawn) [compound 1, isorhamnetol 5-O-[6″-(3-hydroxy-3-methyl glutarate)] β-D-glucoside] the “TEAC (Trolox equivalent antioxidant capacity) ± SEM” value [1] was 0.88 ± 0.21.

With `C[C@H]1O[C@@H](Oc2c(-c3ccc(O)cc3)oc3cc(O)cc(O)c3c2=O)[C@@H](O)[C@@H](O)[C@@H]1O` [compound 3, kaempferol 3-O-β-D-rhamnoside] the “TEAC (Trolox equivalent antioxidant capacity) ± SEM” value [1] was 0.91 ± 0.21.

With `O=c1c(O[C@@H]2O[C@H](CO)[C@@H](O)[C@H](O)[C@H]2O)c(-c2ccc(O)c(O)c2)oc2cc(O)cc(O)c12` [compound 4, quercetin 3-O-β-D-glucoside] the “TEAC (Trolox equivalent antioxidant capacity) ± SEM” value [1] was 0.82±0.23 and 0.82 ± 0.32.

In the case of `C[C@H]1O[C@@H](Oc2c(-c3ccc(O)c(O)c3)oc3cc(O)cc(O)c3c2=O)[C@@H](O)[C@@H](O)[C@@H]1O` [compound 5, quercetin 3-O-β-D-rhamnoside], the “TEAC (Trolox equivalent antioxidant capacity) ± SEM” value [1] is reported as 0.82 ± 0.23.

In the case of `O=C(/C=C/c1ccc(O)cc1)O[C@H]1C(Oc2c(-c3ccc(O)c(O)c3)oc3cc(O)cc(O)c3c2=O)O[C@H](CO)[C@@H](O)[C@@H]1O` (some centres unmarked) [compound 6, quercetin 3-O-(2-p-coumaroylglucoside)], the “TEAC (Trolox equivalent antioxidant capacity) ± SEM” value [1] is reported as 0.36 ± 0.19.

For `O=Cc1ccc(CO)o1` [compound 8, 5-hydroxymethylfurfural], the “TEAC (Trolox equivalent antioxidant capacity) ± SEM” value [1] was 1.05±0.24.

In the case of `O=C(O)c1ccc(O)c(O)c1` [compound 9, 3,4-dihydroxybenzoic acid], the “TEAC (Trolox equivalent antioxidant capacity) ± SEM” value [1] is reported as 0.95 ± 0.01.

For `COC(=O)CC(O)(CC(=O)OC)C(=O)OC` [compound 11, trimethyl citrate], the “antioxidant activity (in words)” value [1] was “moderate to low antioxidant activity” and the “TEAC (Trolox equivalent antioxidant capacity) ± SEM” value [1] was 0.58±0.12.

In the case of “kaempferol 3-O-β-D-glucoside [compound 2]”, the “TEAC (Trolox equivalent antioxidant capacity) ± SEM” value [1] is reported as 0.80 ± 0.31.

In the case of myricetin 3-O-β-D-xyloside [compound 7], the “TEAC (Trolox equivalent antioxidant capacity) ± SEM” value [1] is reported as 0.92 ± 0.35 and the “TEAC (Trolox equivalent antioxidant capacity) ± SEM” value ([1]; listed as myricetin) is reported as 0.92±0.35.
